Test results reported in the supplement of paper PMC10307832.

What was measured:
Assay in all cases: relative viability (nuclei count vs DMSO), 5 days (fraction); higher = more cells survive
[1] = compound: CC1=CC=C(C=C1)C(=O)CN2C3=C(CCCC3)SC2=N [Pifithrin_alpha] + C[C@@H](Oc1cc(-c2cnn(C3CCNCC3)c2)cnc1N)c1c(Cl)ccc(F)c1Cl [Crizotinib] (partner 1 µM)
Outline: (§1)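 For relative viability, nuclei counts in treated wells were divided by those in vehicle wells. Lung cancer cell lines had been pin-tool dosed in 1536-well plates the day after seeding and cultured for 5 days, then fixed and stained in one step (final 0.05% Triton X-100, 1% formaldehyde, 1 ug/ml Hoechst) and imaged at 4×. Doses were one drug alone or a fixed anchor-drug dose plus five library-drug doses (not always all listed) in √10 steps, and values are duplicate-plate medians.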

[2] = compound: CC1=CC=C(C=C1)C(=O)CN2C3=C(CCCC3)SC2=N [Pifithrin_alpha] + C[C@]1(O)C[C@@H](c2nc(-c3ccc4ccc(-c5ccccc5)nc4c3)c3c(N)nccn32)C1 [Linsitinib] (partner 1 µM)
Outline: as §1

[3] = compound: CC1=CC=C(C=C1)C(=O)CN2C3=C(CCCC3)SC2=N [Pifithrin_alpha] + Nc1ncn([C@H]2C[C@H](O)[C@@H](CO)O2)c(=O)n1 [Decitabine] (partner 2 µM)
Outline: as §1

[4] = compound: Nc1nc(Nc2ccc3c(c2)CC[C@@H](N2CCCC2)CC3)nn1-c1cc2c(nn1)-c1ccccc1CCC2 [Bemcentinib] + CC(C)C[C@H](NC(=O)[C@H](Cc1ccccc1)NC(=O)c1cnccn1)B(O)O [Bortezomib] (partner 0.002 µM)
Outline: as §1

Cell Line	relative viability ([1]; first compound 1 µM)	relative viability ([1]; first compound 3.162 µM)	relative viability ([1]; first compound 10 µM)	relative viability ([1]; first compound 31.62 µM)	relative viability ([1]; first compound 100 µM)	relative viability ([2]; first compound 1 µM)	relative viability ([2]; first compound 3.162 µM)	relative viability ([2]; first compound 10 µM)	relative viability ([2]; first compound 31.62 µM)	relative viability ([2]; first compound 100 µM)	relative viability ([3]; first compound 1 µM)	relative viability ([3]; first compound 3.162 µM)	relative viability ([3]; first compound 10 µM)	relative viability ([3]; first compound 31.62 µM)	relative viability ([3]; first compound 100 µM)	relative viability ([4]; first compound 0.04 µM)	relative viability ([4]; first compound 0.1265 µM)	relative viability ([4]; first compound 0.4 µM)	relative viability ([4]; first compound 1.265 µM)	relative viability ([4]; first compound 4 µM)
201T	1.04	0.902	0.862	0.808	0.765	0.956	0.792	0.744	0.689	0.731	0.866	0.866	0.815	0.701	0.74	0.864	1.15	1.12	0.978	1.1
A549	0.989	0.761	0.817	0.552	0.799	–	0.582	0.595	0.458	0.71	–	0.249	0.215	0.207	0.327	–	–	–	–	–
A-427	1	0.85	0.857	0.574	0.932	1.07	1.06	1.1	0.924	1.11	0.485	0.582	0.543	0.485	0.531	–	0.971	0.871	0.942	0.967
ABC-1	1.09	0.999	1.22	0.817	0.597	0.9	0.651	0.621	0.593	0.506	–	1.02	1.03	1	0.803	0.269	0.285	0.289	0.285	0.257
BEN	0.878	1.03	1.05	0.84	1.34	0.991	1.11	1.01	0.929	1.29	0.505	0.771	0.742	0.623	0.639	0.56	0.899	0.891	0.506	0.776
CAL-12T	–	0.656	0.58	0.5	0.555	0.877	0.702	0.819	0.718	0.702	–	–	–	–	–	0.977	0.936	0.953	0.736	0.908
COR-L23	0.583	0.723	0.683	–	0.644	0.974	1.02	0.882	–	0.871	0.412	0.399	0.404	–	0.328	1.16	1.14	1.17	1.27	1.24
COR-L 105	0.678	0.644	0.712	0.469	0.75	0.786	0.713	0.859	0.573	0.662	0.652	0.622	0.62	0.646	0.581	0.766	0.71	1.04	0.739	0.74
Calu-6	0.944	0.742	0.813	0.605	0.85	0.932	1.05	0.997	–	0.848	–	–	–	–	–	1.05	1.07	1.07	1.08	1.12
ChaGo-K-1	1.2	1.27	1.08	0.708	1.03	–	–	–	–	–	0.491	0.533	0.515	0.407	0.496	0.905	1.1	0.98	0.804	0.766
EBC-1	0.187	0.21	0.168	0.16	0.152	0.912	0.878	0.861	0.561	0.576	–	–	–	–	–	0.585	0.547	0.525	0.458	0.585
EKVX	1.02	0.716	0.725	0.46	0.738	1.05	0.644	0.705	0.615	0.739	0.343	0.553	0.319	0.32	0.368	1.02	1.36	1.03	0.996	0.995
EMC-BAC-2	0.733	0.745	0.627	0.416	0.645	0.799	0.859	0.765	0.745	0.927	–	0.95	–	0.84	0.972	1.07	1.15	1.07	0.952	1.11
EPLC-272H	–	0.921	0.805	0.601	1.05	–	1.07	1.21	0.995	1.11	–	0.268	0.39	0.375	0.358	–	1	0.91	0.79	0.876
H3255	0.762	0.948	0.826	0.469	0.656	1.02	0.969	0.919	0.672	0.962	0.581	0.66	0.646	0.389	0.572	0.648	0.863	0.767	0.803	0.715
HARA	1.26	1.11	1.19	0.791	1.24	0.988	1.02	0.9	0.542	0.857	0.474	0.622	0.628	0.514	0.472	1.19	1.17	1.27	1.15	1.1
HCC-15	0.921	1.05	0.755	0.544	0.861	0.937	0.977	0.868	0.593	0.894	0.657	0.738	0.573	0.531	0.456	0.931	1.19	1.12	1	1.07
HCC-44	0.816	0.742	0.647	0.515	0.65	0.571	0.607	0.64	0.441	0.578	0.859	0.919	0.812	0.779	0.857	0.974	0.92	0.992	0.89	0.917
